The values that follow come from US20220211594A1, “TOPICAL COMPOSITIONS” (DSM IP ASSETS B.V., priority 2019, published 2022).

Molecules are shown by their SMILES.

For one test, the system named is C. albicans. Description: Preservation challenge test of inoculated O/W emulsion (ISO 11930), C. albicans. The test is classed as cell-based, Candida albicans. The settings on record: PTT: 0.4 wt.-%, HG & EHG: 0.6 wt.-%. The procedure: (§1) The evaluation of the preservation of a cosmetic formulation is based on inoculation of the formulation as outlined in table 1 with calibrated inocula (prepared from relevant strains of micro-organisms). Therefore, to each formulation 0.2 ml of calibrated inoculum is added to obtain between 1×10^4 cfu/ml and 1×10^7 cfu/ml or g for bacteria, and between 1×10^2 cfu/ml and 1×10^6 cfu/ml or g for C. albicans and A. brasiliensis in the formulation (final concentration), which is mixed thoroughly into the formulation to ensure a homogeneous distribution of the inoculum. Then the respective containers containing the inoculated formulations are stored @ 22.5±2.5° C. At each specified sampling interval (initial (T0), 7 days (T7) and 28 days (T28)) 1 g of the inoculated formulation is taken and a dilution prepared to perform the enumeration of surviving micro-organisms. Then, for each time and each strain/strain mixture, the average log value is calculated which is represented in tables 2-6. (Procedure: see ISO 11930, chapter 5.2.-5.6.3.4. (page 3-13))

For another test, the system named is A. brasiliensis. As to the kind of experiment: Preservation challenge test of inoculated O/W emulsion (ISO 11930), A. brasiliensis. The test is classed as cell-based, Aspergillus brasiliensis. The procedure:
as §1

Test [1] deals with Bacterial cocktail (E. Coli, P. aeruginosa, S. aureus). As to the kind of experiment: Preservation challenge test of inoculated O/W emulsion (ISO 11930), bacterial cocktail. The settings on record: PTT: 0.3 wt -%, HG & EHG: 0.4 wt.-%. The test is classed as cell-based. The procedure:
as §1

Where [2] appears, read: PTT: 0.1 wt.-%, HG & EHG: 0.9 wt.-%, time 0 days.
Setting [3] is: PTT: 0.1 wt.-%, HG & EHG: 0.9 wt.-%, time 7 days.
Where [4] appears, read: PTT: 0.1 wt.-%, HG & EHG: 0.9 wt.-%, time 28 days.
Where [5] appears, read: PTT: 0.3 wt.-%, HG & EHG: 0.4 wt.-%, time 0 days.
The mark [6] stands for this setting: PTT: 0.3 wt.-%, HG & EHG: 0.4 wt.-%, time 7 days.
The mark [7] stands for this setting: PTT: 0.3 wt.-%, HG & EHG: 0.4 wt.-%, time 28 days.
Setting [8] is: PTT: 0.4 wt.-%, HG & EHG: 0.6 wt.-%, time 0 days.
Where [9] appears, read: PTT: 0.4 wt.-%, HG & EHG: 0.6 wt.-%, time 7 days.
[10] abbreviates: PTT: 0.4 wt.-%, HG & EHG: 0.6 wt.-%, time 28 days.

Regarding `CCCCCCOCC(O)CO` (stereo not drawn) [HG, 3-(hexyloxy)-1,2-propanediol], the “Average log [cfu/ml]” value was determined as 4.3 log [cfu/ml] in the test with C. albicans (time 0 days); 3.6 log [cfu/ml] with C. albicans (time 7 days); 3.1 log [cfu/ml] with C. albicans (time 28 days); 4.2 log [cfu/ml] in the test with A. brasiliensis (setting [2]); 1.3 log [cfu/ml] in the test with A. brasiliensis (setting [3]); 0 log [cfu/ml] in the test on A. brasiliensis (setting [4]). Also, the “Average log [cfu/ml]” value in the test on A. brasiliensis (setting [5]) is 4.7 log [cfu/ml]; in the test on A. brasiliensis (setting [6]), 3.7 log [cfu/ml]; in the test on A. brasiliensis (setting [7]), 3.5 log [cfu/ml]; with A. brasiliensis (setting [8]), 4.3 log [cfu/ml]; in the test with A. brasiliensis (setting [9]), 3.6 log [cfu/ml]; in the test on A. brasiliensis (setting [10]) it was 3.1 log [cfu/ml]. For the same compound, the “Average log [cfu/ml]” value worked out at 4.9 log [cfu/ml] in test [1] (time 0 days), 5.7 log [cfu/ml] in test [1] (time 7 days) and 5.6 log [cfu/ml] in test [1] (time 28 days).

Take `CCCCC(CC)COCC(O)CO` (stereo not drawn) [EHG, Ethylhexyl glycerine]: the “Average log [cfu/ml]” value was determined as 3.2 log [cfu/ml] in the test on C. albicans (time 0 days); 6.1 log [cfu/ml] in the test with C. albicans (time 7 days); 6.0 log [cfu/ml] in the test with C. albicans (time 28 days); 4.6 log [cfu/ml] in the test on A. brasiliensis (setting [2]); 4.2 log [cfu/ml] in the test with A. brasiliensis (setting [3]); 4.5 log [cfu/ml] in the test with A. brasiliensis (setting [4]). Moreover, the “Average log [cfu/ml]” value with A. brasiliensis (setting [5]) was 4.6 log [cfu/ml]; with A. brasiliensis (setting [6]), 4.6 log [cfu/ml]; in the test on A. brasiliensis (setting [7]), 4.6 log [cfu/ml]; with A. brasiliensis (setting [8]) it was 4.6 log [cfu/ml]; with A. brasiliensis (setting [9]), 4.4 log [cfu/ml]; in the test on A. brasiliensis (setting [10]), 4.6 log [cfu/ml]. Besides, the results for the “Average log [cfu/ml]” value in test [1] (time 0 days), in test [1] (time 7 days) and in test [1] (time 28 days) were 5.3 log [cfu/ml], 7.0 log [cfu/ml] and 6.5 log [cfu/ml], respectively.

`CC(C)CCCC(C)CCCC(C)CCCC(C)(O)C(O)CO` (stereo not drawn) [PTT, 3,7,11,15-tetramethyl-hexadecane-1,2,3-triol]: the “Average log [cfu/ml]” value in the test on C. albicans (time 0 days) was determined as 3.0 log [cfu/ml]; with C. albicans (time 7 days), 6.8 log [cfu/ml]; in the test with C. albicans (time 28 days) it was 7.1 log [cfu/ml]; in the test with A. brasiliensis (setting [2]), 2.1 log [cfu/ml]; with A. brasiliensis (setting [3]) it was 3.6 log [cfu/ml]; with A. brasiliensis (setting [4]), 4.4 log [cfu/ml]. Further, the “Average log [cfu/ml]” value with A. brasiliensis (setting [5]) came to 6.3 log [cfu/ml]; in the test on A. brasiliensis (setting [6]), 5.7 log [cfu/ml]; in the test on A. brasiliensis (setting [7]), 5.8 log [cfu/ml]; with A. brasiliensis (setting [8]), 1.7 log [cfu/ml]; in the test on A. brasiliensis (setting [9]), 3.5 log [cfu/ml]; with A. brasiliensis (setting [10]), 4.5 log [cfu/ml]. Moreover, the “Average log [cfu/ml]” value in test [1] (time 0 days) was 6.5 log [cfu/ml]; in test [1] (time 7 days) it was 2 log [cfu/ml]; in test [1] (time 28 days), 2 log [cfu/ml].
